Laboratory results as given in patent publication US11339193B2, “CDP protein secretion inhibitors” (KEZAR LIFE SCIENCES, priority 2018, dated 2022).
Numbered stars: 1 amine (or outer) side, 2 acyl side, 3 side chain; on linkers, the order of the positions; unused ones are H or OH. Square brackets hold non-standard residues; d marks the D form. Peptide text beside a SMILES is read from it. NMeTrp(1-(4-Br-benzyl)) = CN[C@@H](Cc1cn(Cc2ccc(Br)cc2)c2ccccc12)C(=O)O; Butanoyl(2R-oxy,4-CN) = N#CCC[C@@H](O)C(=O)O; NMe3Pal(5-F) = CN[C@@H](Cc1cncc(F)c1)C(=O)O; X22 = CCCC[C@@H](C)C[C@H](N[*:1])C(=O)[*:2]; NMePhe(4-F) = CN[C@@H](Cc1ccc(F)cc1)C(=O)O; X28 = CCCC[C@H](C)C[C@H](N[*:1])C(=O)[*:2]; Nva(5,5,5-F3) = N[C@@H](CCC(F)(F)F)C(=O)O; Abu(4,4,4-F3) = N[C@@H](CC(F)(F)F)C(=O)O; NMeL = CN[C@@H](CC(C)C)C(=O)O; NMeA = CN[C@@H](C)C(=O)O; dLac = C[C@@H](O)C(=O)O

Key:
Type in all cases: cell-based
[1] = test system: HER3ss-Gluc; experiment: HER3ss assay; conditions: HEK-293T T-rex cells, transient transfection, doxycycline, 24 h; read-out: HER3 ss IC50
Procedure, shortened: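 HEK-293T T-REx cells were transiently transfected with HER3 signal sequence (plus four mature-domain residues) fused upstream of mature Gaussia luciferase. Cells were induced with doxycycline (1 μg/ml) and exposed to increasing compound concentrations for 24 h, then secreted luciferase in the conditioned medium was read by luminescence.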

[2] = test system: VCAMss+10aa/Gaussia Luciferase; experiment: VCAM-ss-Gluc assay (constitutively active or Dox induced); conditions: Flp-In 293 T-REx cells, 24 hours
Method: Assays Constitutively Active VCAM-ss-Gluc Assay
Transfected cells were selected for resistance to the selectable markers Hygromycin and Blasticidin to create a stable cell line that constitutively expressed the VCAMss+ 10aa/Gaussia Luciferase fusion protein. The day before assay, cells were trypsinized and plated in 384-well tissue culture plates. The next day, culture media was removed from the wells and replaced with fresh media. Compound dilutions in DMSO/media were added to the wells and incubated at 37° C., 5% CO2.
Dox Induced VCAM-ss-Gluc Assay
Transfected cells were selected for resistance to the selectable markers Hygromycin and Blasticidin to create a stable cell line that contained the VCAMss+10aa/Gaussia Luciferase cDNA insert whose expression was regulated under the T-REx™ system. The day before assay, cells were trypsinized and plated in 384-well tissue culture plates. The next day, compound dilutions in DMSO/media containing doxycycline were added to the wells and incubated at 37° C., 5% CO2.

[3] = test system: JJN3 plasma cell leukemia cell line; experiment: JJN-3 assay (Alamar blue); conditions: Homo sapiens, 72 h
Method: (§1) BT474 is a human breast tumor cell line. JJN3 is a human plasma cell leukemia cell line. […] Cells were seeded at 100 000 cells/mL. Aliquots of 5000 cells (50 μL) were added to each well in black, clear bottom 96-well plates. Compounds or control (50 uL of 1% DMSO in cell culture medium) were added to the cells to the indicated final concentrations and cells were incubated for 72 h (unless otherwise specified). After incubation was complete, Alamar blue (10 uL of a 1 mg/mL solution) was added to each well and plates were incubated for 5 h. Fluorescence was then measured (excitation 545 nm, emission 590 nm) and is reported as […] normalized to DMSO control.

[4] = test system: BT474 breast tumor cell line; experiment: BT474 assay (Alamar blue); conditions: Homo sapiens, BT-474, 72 h
Method: as §1

[5] = test system: U266B1 multiple myeloma cell line; experiment: U266 assay (cell viability, Celltiter-Glo); conditions: Homo sapiens, U-266; 48 hours, cell viability
Method: Cells were plated in 384-well tissue culture plates and treated with compound dilutions in DMSO/media. Plates were incubated at 37° C., 5% CO2 for 48 hours. After 48 hours, Celltiter-Glo@ (Promega) was added to each well and luciferase signal was quantified using Tecan Infinite M1000 Pro for cell viability determination.

[6] = test system: Prl-ss+10aa/Gaussia Luciferase; experiment: Prl-ss-Gluc assay (constitutively active or 24 hr Dox inducible); conditions: Flp-In 293 T-REx cells, 24 hours; read-out: Prl IC50
Procedure, shortened: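 Stable Flp-In 293 T-REx lines express Prl signal sequence+10aa fused to Gaussia luciferase, either constitutively (pcDNA5/FRT) or under the T-REx promoter (pcDNA5/FRT/TO). Cells plated the day before; compounds in DMSO/media (with doxycycline for the inducible line, 24 h) incubated at 37 °C, 5% CO2.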

[7] = test system: NCI-H929 multiple myeloma cell line; experiment: H929 assay (cell viability, Celltiter-Glo); conditions: Homo sapiens, NCI-H929; 48 hours, cell viability; read-out: H929 EC50
Procedure, shortened: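 Cells plated in RPMI 1640 with 10% FBS and 2 mM glutamine, treated with compound dilutions in DMSO/media. Incubation 48 h at 37° C, 5% CO2. Viability from luciferase luminescence signal.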

[8] = test system: TNFα-FL/Gaussia Luciferase; experiment: Dox induced TNFα-FL-Gluc assay; conditions: Flp-In 293 T-REx cells, doxycycline, 24 hours; read-out: TNFa FL Gluc IC50
Procedure, shortened: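 Stable Flp-In 293 T-REx line expressing full-length TNFα (aa 1-233) fused at its C-terminus to Gaussia luciferase under doxycycline-inducible control. Cells plated the day before, then given compound dilutions in DMSO/media containing doxycycline and incubated at 37 °C, 5% CO2.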

[9] = test system: PD1-ss+10aa/Gaussia Luciferase; experiment: Dox induced PD1-ss-Gluc assay; conditions: Flp-In 293 T-REx cells, doxycycline, 24 hours; read-out: PD1ss Gluc IC50
Procedure, shortened: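 Stable Flp-In 293 T-REx line expressing doxycycline-inducible Gaussia luciferase fused to the PD1 signal sequence plus 10 amino acids. Cells plated the day before, then exposed to compound dilutions in DMSO/media containing doxycycline at 37 °C, 5% CO2.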

| SMILES | IC50 [1] | IC50 [2] | EC50 [3] | EC50 [4] | EC50 [5] | IC50 [6] | EC50 [7] | IC50 [8] | IC50 [9] |
| --- | --- | --- | --- | --- | --- | --- | --- | --- | --- |
| CC(C)C[C@@H]1NC(=O)[C@H](Cc2c[nH]c3ccccc23)N(C)C(=O)[C@H](CC(C)C)NC(=O)[C@H](CC(C)C)N(C)C(=O)[C@H](CC(C)C)NC(=O)[C@@H](CCC#N)OC(=O)[C@H](C)N(C)C1=O [C-71] (HELM PEPTIDE1{L.[meA].[N#CCC[C@@H](O[*:1])C(=O)[*:2]].L.[meL].L.[meW]}$PEPTIDE1,PEPTIDE1,1:R1-7:R2$$$V2.0) | 445 nM | 354 nM |  |  |  |  |  |  |  |
| CCCC[C@H](C)C[C@@H]1NC(=O)[C@H](Cc2ccc(F)cc2)N(C)C(=O)[C@H](CC(C)C)NC(=O)[C@H](CC(C)C)N(C)C(=O)[C@H](CC(C)C)NC(=O)[C@@H](C)OC(=O)[C@H](C)N(C)C1=O [C-69] (cyclo(L[NMeL]L[NMePhe(4-F)][X28][NMeA][dLac])) |  | 1700 nM |  |  |  |  |  |  |  |
| CC(C)C[C@@H]1NC(=O)[C@H](Cc2cn(Cc3cccc(OC(F)F)c3)c3ccccc23)N(C)C(=O)[C@H](CC(C)C)NC(=O)[C@H](CC(C)C)N(C)C(=O)[C@H](CC(C)C)NC(=O)[C@@H](CCC#N)OC(=O)[C@H](C)N(C)C1=O [C-76] (HELM PEPTIDE1{L.[meA].[N#CCC[C@@H](O[*:1])C(=O)[*:2]].L.[meL].L.[CN([C@@H](Cc1cn(Cc2cccc(OC(F)F)c2)c2ccccc12)C(=O)[*:2])[*:1]]}$PEPTIDE1,PEPTIDE1,1:R1-7:R2$$$V2.0) | 245 nM |  | 669 nM | 5.84 µM |  |  |  |  |  |
| CC(C)C[C@@H]1NC(=O)[C@H](Cc2cn(Cc3ccccc3)c3ccccc23)N(C)C(=O)[C@H](CC(C)C)NC(=O)[C@H](CC(C)C)N(C)C(=O)[C@H](CC(C)C)NC(=O)[C@@H](C)OC(=O)[C@H](C)N(C)C1=O [C-72] (HELM PEPTIDE1{L.[meA].[C[C@@H](O[*:1])C(=O)[*:2]].L.[meL].L.[CN([C@@H](Cc1cn(Cc2ccccc2)c2ccccc12)C(=O)[*:2])[*:1]]}$PEPTIDE1,PEPTIDE1,1:R1-7:R2$$$V2.0) | 226 nM | 327 nM |  |  |  |  |  |  |  |
| CCCC[C@@H](C)C[C@@H]1NC(=O)[C@H](Cc2ccc(F)cn2)N(C)C(=O)[C@H](CC(C)C)NC(=O)[C@H](CC(C)C)N(C)C(=O)[C@H](C[C@H](C)CCCC)NC(=O)[C@@H](CCC#N)OC(=O)[C@H](C)N(C)C1=O [C-17] |  | 14 nM |  |  | 9.13 µM | 6.34 µM | 2200 nM | 274 nM | 149 nM |
| CCCC[C@@H](C)C[C@@H]1NC(=O)[C@H](Cc2cncc(F)c2)N(C)C(=O)[C@H](CC(C)C)NC(=O)[C@H](CC(C)C)N(C)C(=O)[C@H](C[C@H](C)CCCC)NC(=O)[C@@H](CCC#N)OC(=O)[C@H](C)N(C)C1=O [C-24] (cyclo(L[NMe3Pal(5-F)][X22][NMeA][Butanoyl(2R-oxy,4-CN)][X22][NMeL])) |  | 22 nM |  |  | 5.54 µM | 1.66 µM | 1480 nM | 131 nM | 86 nM |
| COc1ccc(Cn2cc(C[C@H]3C(=O)N[C@@H](CC(C)C)C(=O)N(C)[C@@H](C)C(=O)O[C@H](C)C(=O)N[C@@H](CC(C)C)C(=O)N(C)[C@@H](CC(C)C)C(=O)N[C@@H](CC(C)C)C(=O)N3C)c3ccccc32)cc1 [C-11] (HELM PEPTIDE1{L.[meA].[C[C@@H](O[*:1])C(=O)[*:2]].L.[meL].L.[COc1ccc(Cn2cc(C[C@@H](C(=O)[*:2])N(C)[*:1])c3ccccc32)cc1]}$PEPTIDE1,PEPTIDE1,1:R1-7:R2$$$V2.0) |  | 2090 nM | 792 nM |  | 23.7 µM | 4.5 µM | 2560 nM | 295 nM | 52 nM |
| COc1ccccc1Cn1cc(C[C@H]2C(=O)N[C@@H](CC(C)C)C(=O)N(C)[C@@H](C)C(=O)O[C@H](CCC#N)C(=O)N[C@@H](CC(C)C)C(=O)N(C)[C@@H](CC(C)C)C(=O)N[C@@H](CC(C)C)C(=O)N2C)c2ccccc21 [C-32] (HELM PEPTIDE1{L.[meA].[N#CCC[C@@H](O[*:1])C(=O)[*:2]].L.[meL].L.[COc1ccccc1Cn1cc(C[C@@H](C(=O)[*:2])N(C)[*:1])c2ccccc21]}$PEPTIDE1,PEPTIDE1,1:R1-7:R2$$$V2.0) | 161 nM |  |  | 5.28 µM |  | 14.2 µM | 4720 nM | 1050 nM | 203 nM |
| CC(C)C[C@@H]1NC(=O)[C@H](Cc2cn(Cc3cccc(Br)c3)c3ccccc23)N(C)C(=O)[C@H](CC(C)C)NC(=O)[C@H](CC(C)C)N(C)C(=O)[C@H](CC(C)C)NC(=O)[C@@H](CCC#N)OC(=O)[C@H](C)N(C)C1=O [C-77] (HELM PEPTIDE1{L.[meA].[N#CCC[C@@H](O[*:1])C(=O)[*:2]].L.[meL].L.[CN([C@@H](Cc1cn(Cc2cccc(Br)c2)c2ccccc12)C(=O)[*:2])[*:1]]}$PEPTIDE1,PEPTIDE1,1:R1-7:R2$$$V2.0) | 787 nM |  | 2500 nM | 15.1 µM |  |  |  |  |  |
| CC(C)C[C@@H]1NC(=O)[C@H](Cc2cn(Cc3ccc(Br)cc3)c3ccccc23)N(C)C(=O)[C@H](CC(F)(F)F)NC(=O)[C@H](CC(C)C)N(C)C(=O)[C@H](CC(F)(F)F)NC(=O)[C@@H](CCC#N)OC(=O)[C@H](C)N(C)C1=O [C-58, 3-((2R,5S,8S,11S,14S,17S,20S)-14-((1-(4-bromobenzyl)-1H-indol-3-yl)methyl)-8,17-diisobutyl-7,13,19,20-tetramethyl-3,6,9,12,15,18,21-heptaoxo-5,11-bis(2,2,2-trifluoroethyl)-1-oxa-4,7,10,13,16,19-hexaazacyclohenicosan-2-yl)propanenitrile] (cyclo(L[NMeA][Butanoyl(2R-oxy,4-CN)][Abu(4,4,4-F3)][NMeL][Abu(4,4,4-F3)][NMeTrp(1-(4-Br-benzyl))])) |  |  | 111 nM | 0.444 µM |  | 0.619 µM | 629 nM | 90 nM | 25 nM |
| CC(C)C[C@@H]1NC(=O)[C@H](Cc2cn(Cc3ccc(Br)cc3)c3ccccc23)N(C)C(=O)[C@H](CCC(F)(F)F)NC(=O)[C@H](CC(C)C)N(C)C(=O)[C@H](CC(F)(F)F)NC(=O)[C@@H](CCC#N)OC(=O)[C@H](C)N(C)C1=O [C-57] (cyclo(L[NMeA][Butanoyl(2R-oxy,4-CN)][Abu(4,4,4-F3)][NMeL][Nva(5,5,5-F3)][NMeTrp(1-(4-Br-benzyl))])) |  |  | 154 nM | 0.832 µM |  | 1.5 µM | 834 nM | 112 nM | 26 nM |
| CC(C)C[C@@H]1NC(=O)[C@H](Cc2ccccc2)N(C)C(=O)[C@H](CC(C)C)NC(=O)[C@H](CC(C)C)N(C)C(=O)[C@H](CC(C)C)NC(=O)[C@@H](C)OC(=O)[C@H](C)N(C)C1=O [C-34] (HELM PEPTIDE1{L.[meA].[C[C@@H](O[*:1])C(=O)[*:2]].L.[meL].L.[meF]}$PEPTIDE1,PEPTIDE1,1:R1-7:R2$$$V2.0) | 963 nM | 274 nM |  |  |  |  | 6540 nM |  | 1050 nM |
